Where two headings read alike, the source gives them in different places.

Experimental findings from patent publication US8349877B2, “Ternary fungicidal compositions comprising boscalid and chlorothalonil” (BASF SE, priority 2007, dated 2013) are described below.

One test relates to Pyricularia oryzae. The test is classed as cell-based. Conditions: 7 days after inoculation.
The subject of a further test is Colleotrichum truncatum. The experiment in a line: Activity against Colleotrichum truncatum in the microtiterplate test. The class given is cell-based. Conditions: 168 h, read-out: Observed efficacy.
In another test the test system is Alternaria solani. Conditions: 4 ppm; 7 days after inoculation.
The next test has as its system Fusarium culmorum. The experiment in a line: Activity against Fusarium culmorum in the microtiterplate test. The following applies: 0.063 ppm; 7 days after inoculation. The test is classed as cell-based.
Where [1] appears, read: 4 ppm, 7 days after inoculation.

In the case of `Fc1ccc([C@]2(Cn3cncn3)O[C@H]2c2ccccc2Cl)cc1` (racemic) [Epoxiconazol, (2RS,3SR)-1-[3-(2-chlorophenyl)-2,3-epoxy-2-(4-fluorophenyl)propyl]-1H-1,2,4-triazole], the Observed efficacy in the test on Pyricularia oryzae (0.063 ppm) amounted to 4%; in the test on Pyricularia oryzae (1 ppm), 40%.

In the case of `CC(C)OC(=O)N[C@H](C(=O)N[C@H](C)c1nc2ccc(F)cc2s1)C(C)C` [Benthivalicarb, isopropyl {(S)-1-[(1R)-1-(6-fluorobenzothiazol-2-yl)-ethylcarbamoyl]-2-methylpropyl}carbamate], in the test with Colleotrichum truncatum, the inhibition of growth at 4 ppm is 0%. Also, the Observed efficacy with Alternaria solani was found to be 0%.

For the compound `O=C1C2CC=CCC2C(=O)N1SC(Cl)(Cl)Cl` (stereo not drawn) [Captan, N-(trichloromethylthio)cyclohex-4-ene-1,2-dicarboximide], the inhibition of growth at 1 ppm in the test with Colleotrichum truncatum (7 days after inoculation) came to 49%.

Turning to `CO/N=C(/C1=NOCCO1)c1ccccc1Oc1ncnc(Oc2ccccc2Cl)c1F` [Fluoxastrobin, (E)-{2-[6-(2-chlorophenoxy)-5-fluoropyrimidin-4-yloxy]phenyl}(5,6-dihydro-1,4,2-dioxazin-3-yl)methanone O-methyloxime], the inhibition of growth at 1 ppm in the test with Colleotrichum truncatum (7 days after inoculation) is 32%.

`CC(C)NC(=O)N1CC(=O)N(c2cc(Cl)cc(Cl)c2)C1=O` [Iprodion, N-isopropyl-3-(3,5-dichlorophenyl)-2,4-dioxoimidazolidine-1-carboxamide]: in the test with Colleotrichum truncatum (7 days after inoculation), the inhibition of growth at 1 ppm was determined as 7%.

Regarding `CC1(C)CCC(Cc2ccc(Cl)cc2)C1(O)Cn1cncn1` (stereo not drawn) [Metconazol, 5-(4-chlorobenzyl)-2,2-dimethyl-1-[1,2,4]triazol-1-ylmethylcyclopentanol], the Observed efficacy in the test with Pyricularia oryzae (0.063 ppm) came out at 0%; in the test with Pyricularia oryzae (0.25 ppm), 5%; in the test on Fusarium culmorum it was 31%.

As for `COC=C(C(=O)OC)c1ccccc1COc1cccc(C(F)(F)F)n1` [Picoxystrobin, methyl 3-methoxy-2-[2-(6-trifluoromethylpyridin-2-yloxymethyl)phenyl]-acrylate], in the test with Colleotrichum truncatum (0.25 ppm, 7 days after inoculation), the inhibition of growth at 0.25 ppm was found to be 32%.

On to `Cc1cc(C)nc(Nc2ccccc2)n1` [Pyrimethanil, 4,6-dimethylpyrimidin-2-ylphenylamine], for which, in the test on Colleotrichum truncatum (setting [1]), the inhibition of growth at 4 ppm amounted to 7%.

For the compound `CC(C)(C)C(O)(CCc1ccc(Cl)cc1)Cn1cncn1` (stereo not drawn) [Tebuconazole, 1-(4-chlorophenyl)-4,4-dimethyl-3-[1,2,4]triazol-1-ylmethylpentan-3-ol], the inhibition of growth at 4 ppm in the test on Colleotrichum truncatum (setting [1]) turned out to be 0%. The Observed efficacy in the test on Alternaria solani stood at 0%.

With `CC1(C)CC/C(=C\c2ccc(Cl)cc2)C1(O)Cn1cncn1` (stereo not drawn) [Triticonazol, (5E)-5-[(4-chlorophenyl)methylene]-2,2-dimethyl-1-(1H-1,2,4-triazol-1-ylmethyl)cyclopentanol], in the test with Colleotrichum truncatum (7 days after inoculation), the inhibition of growth at 1 ppm was found to be 7%.
